From ChEMBL document CHEMBL1201862, “PubChem BioAssay data set” (2004)
Activity calls are given as the source filed them.

Experiments:
HEK293 [1] = experiment: cells; assay type: functional, cell-based; conditions: Homo sapiens
HEK293 [2] = experiment: NOD2 signaling inhibitors in MDP-stimulated cells, cell-based, uHTS, luminescence (AID 2001); assay type: functional; conditions: Homo sapiens
HEK293 [3] = experiment: inhibition of NOD1-driven NF-kB reporter – cell-based, luminescence, uHTS, primary screen (AID 1578); assay type: functional; conditions: Homo sapiens
HEK293 [4] = experiment: cells; assay type: functional, cell-based; conditions: Homo sapiens; remark: listed apart in the source
HEK293 [5] = experiment: cells; assay type: functional, cell-based; conditions: Homo sapiens; remark: listed apart in the source
[6] = molecular target: Nucleotide-binding oligomerization domain-containing protein 2 (Homo sapiens, UniProt Q9HC29); experiment: inhibition of NOD2-driven NF-kB reporter – cell-based, luminescence, uHTS, HEK293 (AID 1566); assay type: functional
[7] = molecular target: Neurotensin receptor type 1 (Homo sapiens, UniProt P30989); assay type: functional;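 also: Image-based confirmatory dose-response assay measuring agonist activity at NTR1; NTR1-expressing U2OS osteosarcoma cells imaged for beta-arrestin GFP spot formation; agonist potency where compounds increase beta-arrestin recruitment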
[8] = Fluorescence-based cell-based high throughput dose response assay for inhibitors of the interaction of nucleotide-binding oligomerization domain containing 2 (NOD2) and the receptor-interacting serine-threonine kinase 2 (RIPK2).; assay type: functional, Homo sapiens; conditions: Homo sapiens
[9] = molecular target: T1, Microphthalmia-associated transcription factor (Homo sapiens, UniProt O75030); experiment: reducers of TRPM1 reporter luminescence, concentration series – cell-based, SK-MEL-5, cherry-picked, set 3, MITF inhibitor project, dose response (AID 493073); assay type: functional;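 also: SK-MEL-5 melanoma cells with luciferase driven by the MITF target TRPM1 promoter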
T1 sequence (O75030 whole entry): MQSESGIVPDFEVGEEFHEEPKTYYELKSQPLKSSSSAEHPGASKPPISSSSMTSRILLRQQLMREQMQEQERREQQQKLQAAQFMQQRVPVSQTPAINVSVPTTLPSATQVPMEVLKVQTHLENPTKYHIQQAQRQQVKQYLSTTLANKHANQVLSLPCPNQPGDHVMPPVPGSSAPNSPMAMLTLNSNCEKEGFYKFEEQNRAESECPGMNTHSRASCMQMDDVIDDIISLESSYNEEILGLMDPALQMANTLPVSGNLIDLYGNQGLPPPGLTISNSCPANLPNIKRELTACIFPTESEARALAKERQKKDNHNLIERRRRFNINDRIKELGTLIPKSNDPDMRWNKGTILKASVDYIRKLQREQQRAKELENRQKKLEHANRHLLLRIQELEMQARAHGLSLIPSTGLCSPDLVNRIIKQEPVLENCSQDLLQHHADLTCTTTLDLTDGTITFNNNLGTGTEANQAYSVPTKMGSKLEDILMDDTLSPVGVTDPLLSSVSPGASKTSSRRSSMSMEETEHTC

[10] = Luminescence-based cell-based high throughput dose response assay to identify activators of the DAF-12 from the parasite S. stercoralis (ssDAF-12).; assay type: functional
[11] = restored growth of temperature-sensitive Burl-1 yeast – whole organism, S. cerevisiae, Burl-1 ts mutant, luminescence, counter-screen for SUMOylation pathway inhibitor project, dose response (AID 463199); assay type: functional
Large T antigen = Large T antigen (Simian virus 40, UniProt P03070); assay type: functional, Betapolyomavirus macacae;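 also: Confirmatory-stage PubChem screen for compounds that inhibit SV40 T antigen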
[12] = NIH3T3 cell viability loss – ATP luminescence, mouse fibroblasts, counter-screen, dose response (AID 2010); assay type: functional, cell-based;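 also: cells exposed to compound for about 90 hours before reading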
[13] = molecular target: Glucose-6-phosphate 1-dehydrogenase (Homo sapiens, UniProt P11413); experiment: inhibition of Homo sapiens G6PD, dose series – biochemical, fluorescence, selectivity assay for P. falciparum G6PD inhibitor project, dose response (AID 504792); assay type: functional
[14] = Trypanosoma cruzi growth suppression in host cells – NIH3T3 host cells, beta-gal luminescence, confirmation (AID 2044); assay type: functional, cell-based;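 also: intracellular parasites grown in NIH/3T3 mouse fibroblasts as host cells; luminescent beta-galactosidase reporter signal from transgenic T. cruzi replicating inside host cells; inhibitors lower the luminescence signal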
Bcl-2-like protein 10 = Bcl-2-like protein 10 (Homo sapiens, UniProt Q9HD36); experiment: Bcl-B/TR3 peptide binding disruption – biochemical, fluorescence polarization, FITC-TR3 peptide, selectivity assay for Bfl-1 inhibitor project, primary screen (AID 748);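 also: fluorescence polarization from a fluorescein-labelled TR3 peptide binding purified Bcl-B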
[15] = molecular target: G-protein coupled receptor 55 (Homo sapiens, UniProt Q9Y2T6); experiment: selective activators of receptor GPR55 – imaging, U2OS cells, beta-arrestin-GFP redistribution, primary screen (AID 1961); assay type: functional
Coagulation factor XII = molecular target: T2, Coagulation factor XII (Homo sapiens, UniProt P00748); experiment: Factor XIIa Dose Response Confirmation from Single Well HTS. [Related pubchem assays (depositor defined):AID701]; assay type: functional
T2 sequence (P00748 whole entry): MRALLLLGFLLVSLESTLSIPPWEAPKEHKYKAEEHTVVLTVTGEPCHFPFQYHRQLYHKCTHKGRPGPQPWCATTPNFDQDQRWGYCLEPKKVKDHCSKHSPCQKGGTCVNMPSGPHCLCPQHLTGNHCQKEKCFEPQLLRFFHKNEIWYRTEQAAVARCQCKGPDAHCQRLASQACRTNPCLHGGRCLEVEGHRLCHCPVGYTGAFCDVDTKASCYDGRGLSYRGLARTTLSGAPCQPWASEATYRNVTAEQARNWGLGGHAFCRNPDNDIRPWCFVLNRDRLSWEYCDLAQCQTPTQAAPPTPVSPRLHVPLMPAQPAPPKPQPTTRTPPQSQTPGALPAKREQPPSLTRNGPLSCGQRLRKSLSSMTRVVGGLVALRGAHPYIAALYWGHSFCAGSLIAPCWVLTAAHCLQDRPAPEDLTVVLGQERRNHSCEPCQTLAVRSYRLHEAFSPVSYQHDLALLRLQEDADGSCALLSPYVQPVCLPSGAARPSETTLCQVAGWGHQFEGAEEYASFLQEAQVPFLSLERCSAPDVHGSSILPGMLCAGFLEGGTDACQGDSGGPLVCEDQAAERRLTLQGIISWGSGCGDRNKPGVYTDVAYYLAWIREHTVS

Bcl-2-like protein 10, sequence (Q9HD36 whole entry): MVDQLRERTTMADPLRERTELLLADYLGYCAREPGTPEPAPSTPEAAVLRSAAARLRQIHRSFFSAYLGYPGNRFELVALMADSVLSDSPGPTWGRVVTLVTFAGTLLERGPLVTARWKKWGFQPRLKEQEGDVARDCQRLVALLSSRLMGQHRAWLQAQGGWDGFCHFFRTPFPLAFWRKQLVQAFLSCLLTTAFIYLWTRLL
Glucose-6-phosphate 1-dehydrogenase, sequence (P11413 whole entry): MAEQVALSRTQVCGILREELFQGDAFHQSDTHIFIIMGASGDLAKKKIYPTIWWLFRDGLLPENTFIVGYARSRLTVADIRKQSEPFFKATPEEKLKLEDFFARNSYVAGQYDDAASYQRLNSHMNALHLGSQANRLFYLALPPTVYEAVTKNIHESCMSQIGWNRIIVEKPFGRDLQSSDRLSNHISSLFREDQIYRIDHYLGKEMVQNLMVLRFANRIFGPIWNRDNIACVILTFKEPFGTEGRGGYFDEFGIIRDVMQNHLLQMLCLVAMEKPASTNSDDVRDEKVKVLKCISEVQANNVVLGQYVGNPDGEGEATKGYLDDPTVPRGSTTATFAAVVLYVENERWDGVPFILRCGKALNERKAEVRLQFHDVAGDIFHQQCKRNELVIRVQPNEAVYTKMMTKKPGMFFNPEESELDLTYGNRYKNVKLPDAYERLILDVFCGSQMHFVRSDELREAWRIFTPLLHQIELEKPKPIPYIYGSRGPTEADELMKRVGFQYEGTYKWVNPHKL
Neurotensin receptor type 1, sequence (P30989 whole entry, the tested form may be a part): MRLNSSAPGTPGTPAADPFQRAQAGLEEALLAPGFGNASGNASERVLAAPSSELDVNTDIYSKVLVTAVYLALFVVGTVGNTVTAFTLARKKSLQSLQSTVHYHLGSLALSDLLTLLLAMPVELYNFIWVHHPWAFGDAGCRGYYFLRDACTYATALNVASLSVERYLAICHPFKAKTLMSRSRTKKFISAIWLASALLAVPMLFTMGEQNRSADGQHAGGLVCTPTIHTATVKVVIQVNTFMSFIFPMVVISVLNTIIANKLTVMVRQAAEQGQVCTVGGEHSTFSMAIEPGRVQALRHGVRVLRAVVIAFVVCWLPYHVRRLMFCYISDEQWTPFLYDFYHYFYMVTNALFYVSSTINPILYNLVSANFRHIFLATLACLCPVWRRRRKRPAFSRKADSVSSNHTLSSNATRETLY
Nucleotide-binding oligomerization domain-containing protein 2, sequence (Q9HC29 whole entry, the tested form may be a part): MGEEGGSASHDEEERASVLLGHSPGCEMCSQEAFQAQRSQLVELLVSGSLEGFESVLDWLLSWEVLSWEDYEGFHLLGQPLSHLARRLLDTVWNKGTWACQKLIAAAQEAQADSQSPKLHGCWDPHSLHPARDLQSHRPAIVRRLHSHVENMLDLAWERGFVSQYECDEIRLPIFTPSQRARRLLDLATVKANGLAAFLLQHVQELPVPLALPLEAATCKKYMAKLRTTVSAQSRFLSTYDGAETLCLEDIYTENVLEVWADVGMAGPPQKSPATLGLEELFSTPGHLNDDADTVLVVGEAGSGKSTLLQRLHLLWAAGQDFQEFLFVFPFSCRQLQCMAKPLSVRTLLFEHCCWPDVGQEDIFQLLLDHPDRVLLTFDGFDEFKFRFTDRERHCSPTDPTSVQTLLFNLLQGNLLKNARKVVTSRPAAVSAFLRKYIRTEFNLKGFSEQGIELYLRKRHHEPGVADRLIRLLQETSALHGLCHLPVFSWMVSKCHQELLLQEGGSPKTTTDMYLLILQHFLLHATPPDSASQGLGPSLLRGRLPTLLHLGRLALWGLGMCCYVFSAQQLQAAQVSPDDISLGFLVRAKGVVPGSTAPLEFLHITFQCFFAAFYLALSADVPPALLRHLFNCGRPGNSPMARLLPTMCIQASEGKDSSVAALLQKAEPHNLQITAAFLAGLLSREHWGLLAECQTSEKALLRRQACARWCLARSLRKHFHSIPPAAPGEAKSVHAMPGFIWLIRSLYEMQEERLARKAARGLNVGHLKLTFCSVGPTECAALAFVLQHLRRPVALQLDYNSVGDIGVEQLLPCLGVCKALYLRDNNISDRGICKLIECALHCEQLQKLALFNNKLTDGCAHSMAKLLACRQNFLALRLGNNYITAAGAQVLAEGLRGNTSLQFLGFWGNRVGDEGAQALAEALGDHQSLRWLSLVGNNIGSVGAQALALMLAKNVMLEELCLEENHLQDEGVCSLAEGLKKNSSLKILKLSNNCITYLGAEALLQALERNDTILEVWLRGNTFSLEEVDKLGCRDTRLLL
Large T antigen, sequence (P03070 whole entry): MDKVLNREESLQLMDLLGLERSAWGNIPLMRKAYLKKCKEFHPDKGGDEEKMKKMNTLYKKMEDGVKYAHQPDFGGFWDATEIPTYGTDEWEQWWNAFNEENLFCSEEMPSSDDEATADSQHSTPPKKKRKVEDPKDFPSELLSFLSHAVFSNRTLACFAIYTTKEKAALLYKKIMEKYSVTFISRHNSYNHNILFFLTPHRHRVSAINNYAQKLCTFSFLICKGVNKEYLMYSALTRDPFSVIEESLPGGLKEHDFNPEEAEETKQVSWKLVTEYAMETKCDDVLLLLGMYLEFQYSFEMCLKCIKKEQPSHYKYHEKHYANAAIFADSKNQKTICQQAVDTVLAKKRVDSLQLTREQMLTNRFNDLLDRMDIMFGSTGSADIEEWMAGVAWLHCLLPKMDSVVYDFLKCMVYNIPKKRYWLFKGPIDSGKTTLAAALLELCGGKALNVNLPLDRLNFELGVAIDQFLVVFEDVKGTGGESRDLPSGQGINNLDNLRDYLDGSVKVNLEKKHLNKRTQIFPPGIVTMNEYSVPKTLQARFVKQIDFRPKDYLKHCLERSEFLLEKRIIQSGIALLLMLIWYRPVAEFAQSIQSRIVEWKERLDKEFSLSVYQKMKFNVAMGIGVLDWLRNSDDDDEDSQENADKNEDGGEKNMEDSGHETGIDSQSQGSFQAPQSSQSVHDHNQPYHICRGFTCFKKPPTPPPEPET
G-protein coupled receptor 55, sequence (Q9Y2T6 whole entry): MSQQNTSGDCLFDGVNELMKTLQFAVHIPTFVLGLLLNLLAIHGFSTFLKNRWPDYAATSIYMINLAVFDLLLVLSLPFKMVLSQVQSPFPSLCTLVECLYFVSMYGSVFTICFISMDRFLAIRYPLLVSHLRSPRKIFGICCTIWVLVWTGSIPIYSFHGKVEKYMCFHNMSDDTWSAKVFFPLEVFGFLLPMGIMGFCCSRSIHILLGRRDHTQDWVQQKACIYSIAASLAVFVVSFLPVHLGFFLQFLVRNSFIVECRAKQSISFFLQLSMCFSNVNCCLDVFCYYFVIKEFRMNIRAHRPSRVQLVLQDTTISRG

Cc1nc(N2CCN(C(=O)COc3ccccc3)CC2)c2c(C)c(C)sc2n1
IC50 (HEK293 [1]): 11.9 µM (active)
IC50 (HEK293 [2]): 5.95 µM (active)
EC50 (HEK293 [3]): 5.68 µM (active)
IC50 (HEK293 [4]): > 20 µM (inactive)
IC50 (HEK293 [5]): 5.32 µM (active)
EC50 [6]: 7.34 µM (active)

Cc1cc(N2CCOCC2)ccc1/C=C\[N+](=O)[O-]
EC50 [7]: 22.4 µM (inactive)
IC50 [8]: 4.34 µM (active)
AC50 [9]: 22.5 µM (active)
IC50 [10]: > 67.5 µM (inactive)

Cc1ccccc1-c1nnc(CN2CCC(C)CC2)o1
AC50 [11]: 46.9 µM (active)

CC(C)CC1=NN2C(=N)/C(=C\c3coc4ccccc4c3=O)C(=O)N=C2S1
IC50 (Large T antigen): 18.3 µM (active)

COc1ccc(OC)c(-c2cc(C(=O)Nc3c(C)nn(Cc4ccccc4Cl)c3C)no2)c1
AC50 [11]: 47.9 µM (active)

O=[N+]([O-])c1ccc(Sc2cccc3cccnc23)c2cccnc12
EC50 [12]: > 30 µM (not active)
IC50 [13]: > 80 µM (inactive)
EC50 [14]: 0.666 µM (active)

Cc1ccc(CNc2ccc3c(c2)OCO3)cc1
EC50 [12]: > 60 µM (not active)
EC50 [14]: 1.52 µM (active)
IC50 (Bcl-2-like protein 10): > 3.13 µM (inactive)

O=C(/C=C/c1cccc(Br)c1)c1ccc2c(c1)OCO2
EC50 [15]: 4.03 µM (active)

FC(F)(F)c1cnc(Oc2ccc(-c3nnco3)cc2)c(Cl)c1
IC50 (Coagulation factor XII): > 50 µM (inactive)
